Measurements from US7829662B2, “Method of treating apoptosis and compositions thereof” (Dana Farber Cancer Institute, Inc., priority 2001, dated 2010).
“Also recorded” adds a separate entry of the source.

Tests used:
Bak −/− mitochondria = assay: Digitonin releasable cytochrome c pool; format: biochemical; settings: digitonin concentration that does not interfere with IM function (80 pmol × mg protein^−1, 5 mins)
mitochondria [1] = assay: Uncoupled respiration (JO2) of digitonin-treated mitochondria; format: biochemical, Balb/cJ mice; settings: CCCP, exogenous cytochrome c
Description: (§1) Mitochondria were incubated with increasing amounts of digitonin to assess how much cytochrome c was released from IMS by the selective solubilization of the OM (Hoppel and Cooper, 107, 367-375, 1968). To monitor interaction of digitonin with the […], uncoupled respiration in the presence of excess exogenous cytochrome c was assessed. Specifically 0.5 mg/ml mitochondria was incubated in EB with the indicated concentration of digitonin. After 5 minutes, mitochondria were centrifuged and cytochrome c content in the resulting pellet and supernatant were determined as described. Uncoupled JO2, uncoupled respiratory rate was recorded in parallel experiments. After 5 minutes of incubation with the indicated concentration of digitonin, mitochondria were treated with 400 pmol CCCP×mg protein-1 in the presence of 10 nmol cytochrome c×mg protein. Approximately 16% of the total cytochrome c could be released by digitonin without substantial respiratory inhibition (no interference of digitonin with the IM) (Table 1), a percentage in agreement with the pool of cytochrome c estimated to reside in the IMS (Bernardi and Azzone, 1981). Therefore, tBID must deploy additional events to enable the release of nearly all cytochrome c from the mitochondrion.

mitochondria [2] = assay: Cytochrome c release from isolated liver mitochondria (immunoblot densitometry or ELISA); format: biochemical, Balb/cJ mice
Description: Mitochondria were isolated from liver of Balb/cJ mice by standard differential centrifugation, and resuspended in isolation buffer (IB) (0.2 M sucrose, 10 mM Tris-MOPS pH 7.4, 0.1 mM EGTA-Tris, 0.1% delipidated BSA).
At the indicated time, mitochondria were pelleted by centrifugation at 12000×g at 4° C. for 3 min, and resuspended in the same volume of EB. Cytochrome c release was determined either by densitometry (Stratagene Eagle Eye II, BioRad) of immunoblots, or by rat/mouse specific ELISA performed on mitochondrial pellet and supernatant diluted 1:20 in PBS containing 0.5% Triton X-100 (R&D systems, MN). Cytochrome c is reported as the percentage of the supernatant over the total (pellet plus supernatant).
For SDS-PAGE, 20 μg of mitochondrial protein was loaded in each lane of a 12% NuPAGE (NoVex, CA) gel. After separation, proteins were transferred onto PVDF membranes (Immobilon-P, Millipore, Calif.) and membranes were probed as indicated with the following primary antibodies: anti-cytochrome c (Pharmingen, CA, 1:1000); anti-BID (1:1500); anti-BAK (Calbiochem, CA, 1:1000). HRPO-conjugated secondary antibodies (CalTag, CA, 1:2000) were visualized by chemiluminescence (Amersham, N.J.).
as §1, with “protein.” for “protein. Approximately 16% of the total cytochrome c could be released by digitonin without substantial respiratory inhibition (no interference of digitonin with the IM) (Table 1), a percentage in agreement with the pool of cytochrome c estimated to reside in the IMS (Bernardi and Azzone, 1981). Therefore, tBID must deploy additional events to enable the release of nearly all cytochrome c from the mitochondrion.”

[3] = test system: calcein loaded mitochondria; assay: Release of matrix-entrapped calcein (transient PTP opening); format: biochemical, Balb/cJ mice; settings: 10 μM BID α6 14mer
Description: To assess calcein release, mitochondria suspended in IB without BSA were loaded with 10 nmol×mg protein^−1 calcein-AM (Molecular Probes, Eugene, Oreg.) for 20 mins at room temperature in the dark. Following two washes in IB, the calcein loaded mitochondria were resuspended in IB at a final concentration of 10 mg/ml. 0.5 mg/ml calcein loaded mitochondria were incubated in EB and treated as described. After the indicated time, mitochondria were pelleted. Calcein was measured in an LS-50B spectrofluorimeter (Perkin Elmer) with excitation and emission wavelengths set at 488±2.5 nm and 542±2.5 nm, respectively.
After 30 min mitochondria were spun at 14000 g for 3 min at 4 C and the calcein content in the pellet and in the supernatant was determined. […] To determine if a BID α6 mutation variant, BID α6 mutein (SEQ ID NO:7), would inhibit cytochrome c release, His-tag p22 wt BID and the BID α6 mutein were expressed, purified on a Ni^2+ column, and cleaved with caspase 8.
Mitochondria were loaded with calcein and treated with 10 μM BID α6 14mer. Where noted, mitochondria were pretreated with 1 μM CsA. At the indicated time, mitochondria were pelleted by centrifugation and calcein in the pellet and in the supernatant was determined.

BAK = BAK oligomerization (BMH crosslinking, anti-BAK immunoblot); format: biochemical, Balb/cJ mice; settings: 10 μM BID α6 14mer, 30 min
Description: In lanes 7-8 mitochondria were pretreated with 800 pmol CsA×mg protein^−1 for 3 mins. After the indicated time, DMSO (lanes 1-2) or 10 mM BMH (lanes 3-8) was added, and after another 30 min the crosslinking reaction was quenched (Wei et al., 2001). The mitochondria were subjected to SDS-PAGE and immunoblot with anti BAK antibody. Star, BAK multimers.
To also determine if the BID α6 14mer (SEQ ID NO:1) modulated BAK oligomerization, mitochondria were incubated for 30 min with 10 μM BID α6 14mer in the presence or in the absence of 1 μM CsA. Crosslinking with BMH, SDS-PAGE and anti BAK immunoblotting was carried out.

wt mitochondria = assay: Cytochrome b5-dependent NADH oxidation assay; format: biochemical, Balb/cJ mice; settings: 10 μM BID α6 14mer, 20 min
Description: (d), mitochondria were preincubated for 2 min with 800 pmol CsA×mg protein^−1. (a), no additions. After 15 min, respiratory chain inhibitors were added and after another 2 minutes NADH fluorescence reading started. Arrow, 20 nmol NADH×mg protein^−1. In (e), 200 nmol mersalyl×mg protein was added 1 min before NADH.
In the cytochrome b5-dependent NADH oxidation assay, 1 mg/ml mitochondria were incubated in EB and treated as indicated. 400 pmol CCCP, 2 nmol rotenone and 1 nmol antimycin A×mg protein^−1 were added after the time indicated and the reaction transferred to a cuvette. After 2 min, 10 μM NADH was added and its oxidation monitored as the decrease in NADH fluorescence in a LS50B spectrofluorimeter (Perkin Elmer) set with λex=366 nm and λem=455 nm, with 5 nm slits.

mitochondria [4] = assay: Mitochondrial swelling by side scatter at 545 nm; format: biochemical, Balb/cJ mice; settings: 10 μM 14mer
Description: tBID was evaluated to determine if it causes any swelling or depolarization that might reflect an opening of the PTP. Swelling of 0.5 mg/ml mitochondria incubated in EB was monitored by changes in side scatter at 545±2.5 nm using LS-50B spectrofluorimeter equipped with magnetic stirring at 25° C. Membrane potential changes of 0.5 mg/ml mitochondria incubated in experimental buffer were monitored from the dequenching of a 0.3 μM Rhodamine 123 (Molecular Probes, OR) solution in a LS-50B spectrofluorimeter at 25° C., using excitation and emission wavelengths set at 503±2.5 nm and 525±5 nm, respectively.
To determine if the BID α6 14mer (SEQ ID NO:1) induced mitochondrial swelling or release of cytochrome c across the mitochondrial outer membrane, mitochondria at 1 mg/ml were incubated in experimental buffer and, where indicated, 20 μM Ca^2+ and 10 μM 14mer were added. Where noted, mitochondria were preincubated with CsA. […] Mitochondria were incubated with 10 μM 14mer in the presence or in the absence of 1 μM CsA. At the indicated time in minutes, mitochondria were pelleted by centrifugation and cytochrome c in the pellet and in the supernatant was determined.

C[C@@H]1CC[C@@]2(OC1)O[C@H]1[C@@H](O)[C@H]3[C@@H]4CC[C@H]5C[C@@H](O[C@@H]6O[C@H](CO)[C@H](O[C@@H]7O[C@H](CO)[C@@H](O)[C@H](O[C@@H]8OC[C@@H](O)[C@H](O)[C@H]8O)[C@H]7O[C@@H]7O[C@H](CO)[C@H](O)[C@H](O[C@@H]8O[C@H](CO)[C@@H](O)[C@H](O)[C@H]8O)[C@H]7O)[C@H](O)[C@H]6O)[C@H](O)C[C@]5(C)[C@H]4CC[C@]3(C)[C@H]1[C@@H]2C [Digitonin]
release of total cytochrome c by digitonin (Bak −/− mitochondria): 19.2±4.8%
Uncoupled JO2 (mitochondria [1]; Digitonin 48 pmol × mg protein^−1): 60 nAt × min^−1 × mg protein^−1
Uncoupled JO2 (mitochondria [1]; Digitonin 80 pmol × mg protein^−1): 60 nAt × min^−1 × mg protein^−1
Uncoupled JO2 (mitochondria [1]; Digitonin 145 pmol × mg protein^−1): 46.7 nAt × min^−1 × mg protein^−1
Cytochrome c release (% of total) (mitochondria [2]; Digitonin 48 pmol × mg protein^−1, 5 minutes): 10.7 % of total
Cytochrome c release (% of total) (mitochondria [2]; Digitonin 80 pmol × mg protein^−1, 5 minutes): 16.4 % of total
Cytochrome c release (% of total) (mitochondria [2]; Digitonin 145 pmol × mg protein^−1, 5 minutes): 26.6 % of total
total cytochrome c released by digitonin (mitochondria [2]; without substantial respiratory inhibition): Approximately 16%

NH2-XMLXXXXLLAKKVA—COOH [BID α6 14mer, 14 amino acid peptide of the BID α6 helix]
calcein release (onset of transient PT) [3]: resulted in the efflux of mitochondrial matrix entrapped calcein; also recorded: causes calcein release from mitochondria
BAK oligomerization (BAK): did not result in BAK oligomerization; also recorded: does not induce BAK oligomerization
mobilization of cytochrome c (cytochrome b5-dependent NADH oxidation) (wt mitochondria): induced the mobilization of cytochrome c; also recorded: induces cytochrome c redistribution
mitochondrial swelling (mitochondria [4]): did not induce swelling of mitochondria; also recorded: does not induce mitochondrial swelling
release of cytochrome c across the mitochondrial outer membrane (mitochondria [2]; 10 μM 14mer): nor did it trigger the actual release of cytochrome c across the mitochondrial outer membrane; also recorded: does not cause cytochrome c release across the outer membrane
